In ChEMBL document CHEMBL5113505 (Eur J Med Chem, 2022) one finds Activity and IC50 data, which are given here for 19 compounds.

In experiment [1] the target is T1, Dual specificity mitogen-activated protein kinase kinase 7 (Homo sapiens) (UniProt O14733).
T1 sequence (whole entry): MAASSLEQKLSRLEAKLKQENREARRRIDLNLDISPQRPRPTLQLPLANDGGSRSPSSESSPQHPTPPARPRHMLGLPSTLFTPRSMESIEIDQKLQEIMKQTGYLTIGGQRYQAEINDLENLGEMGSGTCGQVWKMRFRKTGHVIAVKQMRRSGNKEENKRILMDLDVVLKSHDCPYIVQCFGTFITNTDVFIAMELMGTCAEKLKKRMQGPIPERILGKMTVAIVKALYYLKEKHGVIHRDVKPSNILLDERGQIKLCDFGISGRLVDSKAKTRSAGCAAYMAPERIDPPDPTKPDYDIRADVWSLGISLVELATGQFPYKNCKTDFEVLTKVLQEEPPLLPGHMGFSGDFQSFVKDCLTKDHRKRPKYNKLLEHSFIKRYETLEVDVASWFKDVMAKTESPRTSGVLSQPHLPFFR
Briefly: Binding affinity to MKK7 (unknown origin) assessed as percent of control at 100 nM by Kinomescan method relative to control.

Experiment [2] has as its target Mitogen-activated protein kinase kinase kinase 20 (Homo sapiens) (UniProt Q9NYL2). Briefly: Binding affinity to ZAK (unknown origin) assessed as percent of control at 100 nM by Kinomescan method relative to control.
The target of experiment [3] is T2, Dual specificity mitogen-activated protein kinase kinase 6 (Homo sapiens, UniProt P52564).
T2 sequence (P52564 whole entry): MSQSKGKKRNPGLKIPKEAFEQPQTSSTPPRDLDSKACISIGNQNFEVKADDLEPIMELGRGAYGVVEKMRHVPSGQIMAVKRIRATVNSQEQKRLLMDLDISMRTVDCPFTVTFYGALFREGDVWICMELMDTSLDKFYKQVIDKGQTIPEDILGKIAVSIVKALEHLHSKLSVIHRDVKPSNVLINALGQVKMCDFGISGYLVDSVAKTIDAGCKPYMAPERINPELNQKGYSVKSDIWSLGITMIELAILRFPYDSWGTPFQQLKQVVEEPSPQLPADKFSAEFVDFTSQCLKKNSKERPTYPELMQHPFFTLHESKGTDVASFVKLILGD
Briefly: Inhibition of MKK6 (unknown origin).

Sequence of Mitogen-activated protein kinase kinase kinase 20 (Homo sapiens) (Q9NYL2 2-800 limits assumed): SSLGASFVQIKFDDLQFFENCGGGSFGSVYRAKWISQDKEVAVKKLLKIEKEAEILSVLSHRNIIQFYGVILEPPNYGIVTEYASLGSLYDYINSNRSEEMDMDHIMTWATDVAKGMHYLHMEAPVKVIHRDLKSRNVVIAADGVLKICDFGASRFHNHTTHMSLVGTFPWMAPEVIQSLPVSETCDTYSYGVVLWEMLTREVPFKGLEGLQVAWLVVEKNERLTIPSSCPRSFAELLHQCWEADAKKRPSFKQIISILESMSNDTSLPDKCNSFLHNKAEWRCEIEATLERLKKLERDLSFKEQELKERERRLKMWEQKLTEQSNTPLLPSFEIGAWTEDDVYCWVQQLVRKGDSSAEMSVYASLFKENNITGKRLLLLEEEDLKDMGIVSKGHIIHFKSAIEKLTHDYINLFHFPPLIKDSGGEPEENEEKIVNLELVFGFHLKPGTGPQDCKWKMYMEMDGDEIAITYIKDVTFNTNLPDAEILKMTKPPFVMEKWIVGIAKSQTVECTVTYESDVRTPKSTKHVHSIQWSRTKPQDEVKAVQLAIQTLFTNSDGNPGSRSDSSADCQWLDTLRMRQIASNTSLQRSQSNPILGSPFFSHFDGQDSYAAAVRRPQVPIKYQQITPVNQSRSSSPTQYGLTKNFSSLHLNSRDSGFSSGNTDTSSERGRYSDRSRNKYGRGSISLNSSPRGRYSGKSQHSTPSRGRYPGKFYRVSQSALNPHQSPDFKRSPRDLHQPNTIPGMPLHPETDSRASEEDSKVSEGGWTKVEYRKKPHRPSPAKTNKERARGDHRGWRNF

In the case of `CCCS(=O)(=O)Nc1ccc(F)c(C(=O)c2c[nH]c3ncc(-c4ccc(S(N)(=O)=O)cc4)cc23)c1F`, the Activity in experiment [1] was 78%; in experiment [2], 94%. In the same order, the values of `CCCS(=O)(=O)Nc1ccc(F)c(C(=O)c2n[nH]c3ncc(-c4ccc(C(=O)NCC(O)CO)cc4)cc23)c1F` (stereo unspecified) are 97% and 2.8%.

`CCCS(=O)(=O)Nc1ccc(F)c(C(=O)c2ccc3[nH]c4ncc(-c5ccc(C(N)=O)cc5)cc4c3c2)c1F`: the Activity in experiment [1] was determined as 98%; in experiment [2], 89%.

On to `CCCS(=O)(=O)Nc1ccc(F)c(C(=O)c2c[nH]c3ncc(-c4ccc(OCC(O)CO)cc4)cc23)c1F` (stereo unspecified), for which the figures for the Activity in experiment [1] and in experiment [2] were 99% and 0.35%, respectively. In the same order, the values of `CCCS(=O)(=O)Nc1ccc(F)c(C(=O)c2ccc3[nH]c4ncc(-c5ccc(C(=O)O)cc5)cc4c3c2)c1F` are 100% and 98%. For `CCCS(=O)(=O)Nc1ccc(F)c(C(=O)c2ccc3[nH]c4ncc(-c5ccc(Cl)cc5)cc4c3c2)c1F`, the Activity in experiment [1] and in experiment [2] was 100% in each case. As to `CCCS(=O)(=O)Nc1ccc(F)c(C(=O)c2c[nH]c3ncc(-c4cccnc4)cc23)c1F`, the figures for the Activity in experiment [1] and in experiment [2] were 100% and 0.6%, respectively. Turning to `CCCS(=O)(=O)Nc1ccc(F)c(C(=O)c2ccc3[nH]c4ncc(-c5ccc(-c6nnn[nH]6)cc5)cc4c3c2)c1F`, the Activity in experiment [1] and in experiment [2] was 100% throughout. In the case of `CCCS(=O)(=O)Nc1ccc(F)c(C(=O)c2n[nH]c3ncc(-c4ccc(S(=O)(=O)NCC(O)CO)cc4)cc23)c1F` (stereo unspecified), the Activity worked out at 100% in experiment [1] and 29% in experiment [2]. In the same order, the values of `CCCS(=O)(=O)Nc1ccc(F)c(C(=O)c2ccc3[nH]c4ncc(-c5ccc(OCC(O)CO)cc5)cc4c3c2)c1F` (stereo unspecified) are 96% and 100%. In the same order, the values of `CCCS(=O)(=O)Nc1ccc(F)c(C(=O)c2ccc3[nH]c4ncc(-c5ccccc5F)cc4c3c2)c1F` are 100% and 100%.

In the case of `CCCS(=O)(=O)Nc1ccc(F)c(C(=O)c2ccc3[nH]c4ncc(-c5ccc(C(=O)NCC(O)CO)cc5)cc4c3c2)c1F` (stereo unspecified), the values for the Activity in experiment [1] and in experiment [2] were 100% and 88%, respectively. On the same counts, the results for `CCCS(=O)(=O)Nc1ccc(F)c(C(=O)c2ccc3[nH]c4ncc(-c5ccc(S(=O)(=O)NCC(O)CO)cc5)cc4c3c2)c1F` (stereo unspecified) are 97% and 100%. On the same counts, the results for `CCCS(=O)(=O)Nc1ccc(F)c(C(=O)c2ccc3[nH]c4ncc(-c5ccc(S(N)(=O)=O)cc5)cc4c3c2)c1F` are 100% and 100%. In the same order, the values of `CCCS(=O)(=O)Nc1ccc(F)c(C(=O)c2ccc3[nH]c4ncc(-c5ccc(O)cc5)cc4c3c2)c1F` are 100% and 100%. As a reminder, the IC50 is the concentration needed to halve the response being measured. Take `NC(=O)c1ccc2[nH]c3ncnc(-c4ccccc4)c3c2c1`: in experiment [3], the IC50 is < 1000 nM.

For the compound `CCCS(=O)(=O)Nc1ccc(F)c(C(=O)c2n[nH]c3ncc(-c4ccc(O)cc4)cc23)c1F`, the Activity in experiment [2] came to 0%. `CCCS(=O)(=O)Nc1ccc(F)c(C(=O)c2c[nH]c3ncc(-c4ccc(O)cc4)cc23)c1F`: the Activity in experiment [1] worked out at 100%; in experiment [2], 0.15%. In the same order, the values of `CCCS(=O)(=O)Nc1ccc(F)c(C(=O)c2ccc3[nH]c4ncc(-c5ccncc5)cc4c3c2)c1F` are 91% and 94%.
